# What was measured:
# [1] = PAMPA permeability, heart total lipid extract (HTLE) membrane; conditions: for Mean Pe / Papp at 4 h, 100 μM / Mean logPe: Heart total lipid extract membrane, n=3; for Papp at 4 h, 100 μM: bovine, PAMPA
# [2] = PAMPA permeability, brain polar lipid extract (BPLE) membrane; conditions: for Mean logPe / Mean Pe: Brain Polar lipid extract membrane, n=3; for Mean Pe: * = not detected at acceptor side, value calculated from limit of detection; for Papp at 4 h, 100 μM: pig, PAMPA, pH 7.4
# [3] = PAMPA permeability, liver total lipid extract (LTLE) membrane; conditions: for Mean logPe / Mean Pe: Liver total lipid extract membrane, n=3; for Mean Pe: * = not detected at acceptor side, value calculated from limit of detection; for Papp at 4 h, 100 μM: bovine, PAMPA, pH 7.4
# [4] = PAMPA permeability, liver polar lipid extract (LPLE) membrane; conditions: for Papp at 4 h, 100 μM: bovine, PAMPA
# [5] = PAMPA permeability, brain total lipid extract (BTLE) membrane; conditions: for Mean logPe / Mean Pe: Brain total lipid extract membrane, n=3; for Mean Pe: * = not detected at acceptor side, value calculated from limit of detection; for Papp at 4 h, 100 μM: pig, PAMPA, pH 7.4
# [6] = PAMPA permeability, heart polar lipid extract (HPLE) membrane; conditions: for Mean Pe / Mean logPe: Heart Polar lipid extract membrane, n=3; for Mean Pe: * = not detected at acceptor side, value calculated from limit of detection; for Papp at 4 h, 100 μM: bovine, PAMPA, pH 7.4
# [7] = PAMPA permeability, comparison across the six natural lipid extract membranes; conditions: heart, liver and brain extracts, Figure 10A–C
# [8] = * = not detected at acceptor side, value calculated from limit of detection
# [9] = n=3, * = not detected at acceptor side, value calculated from limit of detection
# [10] = pH 7.4, Mean Pe, * = not detected at acceptor side, value calculated from limit of detection
# [11] = pH 7.4, Mean Pe, n=3, * = not detected at acceptor side, value calculated from limit of detection
Compound,"Mean Pe [1, 8]","Papp at 4 h, 100 μM ([1]; pH 7.4, Mean logPe) [×10⁻⁶ cm/s]",Mean logPe [2],Mean Pe [2],Mean logPe [3],Mean Pe [3],Mean logPe ([4]; n=3),"Mean Pe [4, 9]",Mean logPe [5],Mean Pe [5],Mean Pe [6],"Papp at 4 h, 100 μM [6] [×10⁻⁶ cm/s]",Mean logPe [1],"Papp at 4 h, 100 μM [2] [×10⁻⁶ cm/s]","Papp at 4 h, 100 μM [5] [×10⁻⁶ cm/s]",Mean logPe [6],"Papp at 4 h, 100 μM [3] [×10⁻⁶ cm/s]","Papp at 4 h, 100 μM [1, 10] [×10⁻⁶ cm/s]","Papp at 4 h, 100 μM [4, 11] [×10⁻⁶ cm/s]",also measured
N=C(N)c1ccc(OCCCOc2ccc(C(=N)N)cc2)cc1 [propamidine],"< 0,76* 10-6 cm/s",< 0.759,< -6.12,"< 0,76* 10-6 cm/s",< -6.12,"< 0,76* 10-6 cm/s",< -6.12,"< 0,76* 10-6 cm/s",< -6.13,"< 0,73* 10-6 cm/s","< 0,73* 10-6 cm/s",< 0.741,,,,,,,,
O=C1CN=C(c2ccccc2)c2cc([N+](=O)[O-])ccc2N1 [nitrazepam],,,-4.67,,-4.26,,-4.60,,-4.47,,,,-4.46,21.5,34.1,-4.54,,,,total-polar permeability comparison [7]: higher permeability in total lipids
NC(N)=Nc1nc(CSCCC(N)=NS(N)(=O)=O)cs1 [famotidine],"< 0,33* 10-6 cm/s",< 0.324,< -6.48,"< 0,33* 10-6 cm/s",,"< 0,33* 10-6 cm/s",< -6.49,"< 0,33* 10-6 cm/s",< -6.47,"< 0,34* 10-6 cm/s","< 0,34* 10-6 cm/s",< 0.339,,,,,< 0.331,,,
ondansetron,9.85 10-6 cm/s,,-4.71,19.60 10-6 cm/s,,57.25 10-6 cm/s,-4.59,25.69 10-6 cm/s,-4.63,23.49 10-6 cm/s,13.69 10-6 cm/s,,-5.01,,,-4.86,,,,
CO/N=C(\C(=O)N[C@@H]1C(=O)N2C(C(=O)O)=C(COC(N)=O)CS[C@H]12)c1ccco1 [cefuroxime],,,-5.94,,< -5.94,"< 1,14* 10-6 cm/s",-5.17,,-5.89,,"< 1,28* 10-6 cm/s",,-5.91,1.14,1.28,< -5.89,,1.25,7.1,
Nc1c(Br)cc(Br)cc1CN[C@H]1CC[C@H](O)CC1 [ambroxol],,,,,-4.27,,-4.26,,,,,61.8,-4.40,,,-4.21,54,,54.5,
CC(CCc1ccccc1)NCC(O)c1ccc(O)c(C(N)=O)c1 (centres unmarked) [labetalol],,,-4.65,,-4.42,,-4.72,,-4.83,,,8.38,-5.27,22.2,15.1,-5.08,38,5.37,19,
CC(C)c1nc(N(C)S(C)(=O)=O)nc(-c2ccc(F)cc2)c1/C=C/[C@@H](O)C[C@@H](O)CC(=O)O [rosuvastatin],"< 0,48* 10-6 cm/s",< 0.479,< -6.32,"< 0,48* 10-6 cm/s",< -6.32,"< 0,48* 10-6 cm/s",< -6.32,"< 0,48* 10-6 cm/s",< -6.33,"< 0,46* 10-6 cm/s","< 0,46* 10-6 cm/s",< 0.468,,,,,,,,
CN1C(C(=O)Nc2ccccn2)=C(O)c2ccccc2S1(=O)=O [piroxicam],,2.88,-5.64,,-4.79,,-4.99,,-5.45,,,,,2.35,3.57,,16.3,1.92,10.3,"PAMPA permeability on HTLE ([1]; pH 7.4, 4 h, 37 °C, in words (PCA biplot, Figure 11B)): low"
COCCc1ccc(OCC(O)CNC(C)C)cc1 (centres unmarked) [metoprolol],,,,,-4.4,,,,,,,,-5.04,,,-4.96,40.1,,13.2,"Papp at 4 h, 100 μM ([4]; pH 7.4, Mean logPe, n=3): 19.5 ×10⁻⁶ cm/s"

# Source: PMC10053807, “Natural Lipid Extracts as an Artificial Membrane for Drug Permeability Assay: In Vitro and In Silico Characterization” (Pharmaceutics, 2023)
